From patent US6416987B1, “Mutants of thymidylate synthase and uses thereof” (Sloan Kettering Institute for Cancer Research, priority 1997, dated 2002)
Where two headings read alike, the source gives them in different places.

Experiments:
[1] = test system: TS-negative FSthy21 cells transfected with F225W mutant human TS cDNA; type: cell-based, mouse
[2] = test system: TS-negative FSthy21 cells transfected with I108A mutant human TS cDNA; assay: Growth inhibition assay (alamar Blue), I108A transfectants; conditions: for Ratio of IC50 values for mutant/wt cells: AG337
Procedure: (§2) The mouse TS-negative FSthy21 cells were used as the host for DNA transfections. This cell line, which is a TS-deficient derivative of mouse FM3A cells, was routinely maintained in MEM medium supplemented with 10% fetal bovine serum and 10×10^−5 M thymidine. Transfections were performed by DOTAP, using 10 μg of DNA/culture. Four days after transfection, cells were placed in selective medium, which contain no thymidine and reduced folate. Colonies having the ability to grow in the absence of thymidine were pooled and propagated as a mass culture.
(§3) Logarithmically growing suspension mouse TS-20 negative FSthy21 cells transfected with wild-type or variant human TS cDNA were seeded in 96-well plates at 1,000 cells/well in 180 μl of complete medium. […] Cell viability was measured by the alamar Blue™ assay. This method incorporates an oxidation-reduction (REDOX) indicator that both fluoresces and changes color in response to chemical reduction of growth medium resulting from cell growth. To above 96-well cultured cells, 25 μl of Alamar Blue (Alamar, Sacramento, Calif.) (10% of incubation volume) were added according to the manufacturer's instructions. The culture 96-well plates were then incubated at 37° C. for 4 hours. Viable cells induce chemical reduction of the media which results in a change in REDOX color from blue to red. The intensity of red color (and fluoresces) is proportional to the viable cells. After incubation, fluorescence is was read at 530-560 nm excitation wavelength and 590 nm emission wavelength by an automated plate reader (model EL340; Bio-Tek). Drug concentrations needed to reduce cell growth by 50% (IC50 values) were determined graphically by plotting of cell growth verses inhibitor concentration.
(§4) The effect of three antifolates and FdUrd on the growth characteristics of transfectants that stably express various TS proteins was evaluated by cytotoxicity studies. Cell growth was measured by the alamar blue assay. IC50 values were calculated as the concentration of inhibitor required to inhibit growth by 50% compared to wild-type transfected cells grown under identical conditions.

HT1080 cells [3] = assay: EMS sensitivity of HT1080 cells (colony formation); type: cell-based; conditions: Homo sapiens, HT-1080; 400 μg/ml EMS, 18 hr exposure
Procedure: HT1080 cells were seeded into 6-well plates (100-300 cells/well). After overnight incubation to allow cell attachment, The cells were exposed with EMS for 18 hours, washed three times, and then incubated with EMS-free medium for a further 14 days. The range of EMS concentration tested was 100 to 1000 μg of EMS/ml of culture medium. Colonies formed (50 cells) were stained with crystal violet and counted. The concentration of EMS used for the random mutagenesis experiments was determined based on the number of colonies obtained in the EMS-treated test versus EMS concentrations (Sega, 1984; Fanin et al., 1993).

[4] = cited from earlier work
[5] = in vivo; cited from earlier work
[6] = test system: TS-negative FSthy21 cells transfected with I108F mutant human TS cDNA; type: cell-based, mouse; conditions: AG337; 1108F/clone (2) vs wild-type clone (2)
[7] = target: TS-negative FSthy21 cells transfected with I108A mutant human TS cDNA (Homo sapiens, UniProt P04818, P2L/I108A, cells depend on it); assay: Growth inhibition assay (alamar Blue), I108A transfectants; conditions: read-out: IC50 values, AG337, 7-day exposure
Procedure: as §2, §3, §4

[8] = test system: TS-negative FSthy21 cells transfected with L221I mutant human TS cDNA; type: cell-based, mouse; conditions: AG337; L221I/clone (1) vs wild-type clone (1)
[9] = test system: TS-negative FSthy21 cells transfected with F225Y mutant human TS cDNA; type: cell-based, mouse; conditions: AG337; F225Y/clone (1) vs wild-type clone (1)
[10] = test system: mouse bone marrow cells (N.B.M.); assay: CFU-GM / HPPCFU-C assay, N.B.M.; type: cell-based
[11] = test system: mouse bone marrow cells transfected with wild type TS (TS161); assay: CFU-GM / HPPCFU-C assay, marrow transfected with plasmid TS161; type: cell-based
Procedure: (§1) DNA into Mouse Bone Marrow Progenitor Cells Twenty micrograms of plasmid DNA (TS161 or TS175) and ten micrograms of DOTAP were diluted to 100 μl with HBS buffer and incubated at room temperature for 10 minutes. The mixture was added to 2×10^6 mouse bone marrow cells suspended in 0.5 ml of IMDM medium (in a 35 mm culture dish). After a 4 hour incubation at 37° C., 2 ml of IMDM with 30% FBS was added to each dish and the incubation was continued for 24 hours. […] Transfected cells prepared as described above were distributed into 10×35 mm dishes (3×10^5 cells in […] IMDM media/dish). […] Drug was added at the indicated concentration to each dish and the cells were cultured at 37° C. (5% CO2) for 10-14 days.

[12] = test system: in situ TS activity in AG337-resistant HT1080 cell lines; assay: Whole cell TS assay (tritium release); type: cell-based, human; conditions: resistant lines HT1080/1b, 2b, 1c, 2c, 1d, 2d, 6e at minimal AG337 concentration giving no detectable TS activity in HT1080
Procedure: Resistance to TS inhibitors was evaluated using the whole cell TS assay for several AG337-resistant sublines and parental cell line HT1080 as a control. […] For the absence of TS inhibitors, cells convert 2′-[5-^3H]-deoxyuridine to dTMP, releasing ^3H2O into the medium. The rate of dTMP synthesis in the presence or absence of drug was assessed at 0, 15, 30, 40 minutes, by measurement of [3H]2O release by charcoal-TCA (trichloroacetic acid) separation of ^3H2O from nucleosides and nucleotides. Radioactivity was quantitated using a liquid scintillation counter (Beckman LS5).
The effect of AG337 on whole cell in situ TS activity was measured by the tritium release assay in HT1080 cells and several resistant cell lines with putative mutations. The cell lines HT1080/1b, HT1080/2b, HT1080/1c, HT1080/2c, HT1080/1d, HT1080/2d and HT1080/6e were resistant to AG337. […] This method provided a rapid qualitative confirmation of whether or not a cell line is resistant to AG337.

[13] = test system: TS-negative FSthy21 cells transfected with D49G mutant human TS cDNA; type: cell-based, mouse
[14] = test system: TS-negative FSthy21 cells transfected with K47E mutant human TS cDNA; type: cell-based, mouse; conditions: AG337; K47E/clone (2) vs wild-type clone (1)
[15] = test system: TS-negative FSthy21 cells transfected with L221S mutant human TS cDNA; type: cell-based, mouse; conditions: AG337; L221S/clone (2) vs wild-type clone (1)
[16] = test system: TS-negative FSthy21 cells transfected with L221A mutant human TS cDNA; type: cell-based, mouse; conditions: AG337; L221A/clone (2) vs wild-type clone (1)
[17] = test system: mouse bone marrow cells transfected with mutant TS (TS175); assay: CFU-GM / HPPCFU-C assay, marrow transfected with plasmid TS175; type: cell-based
Procedure: as §1

HT1080 cells [18] = assay: AG337 sensitivity of HT1080 (colony formation); type: cell-based, human; conditions: drug cytotoxicity assay
Procedure: The optimum concentration of AG337 for selection of resistant clones was determined as follows. The human fibrosarcoma HT1080 cells were seeded into 6-well plates at 100 cells per well and incubated at 37° C. with complete medium. Various concentrations of AG337 were added after 24 hours. Drug-containing medium was changed every 4 days and surviving colonies were counted after 14 days of drug treatment.

[19] = test system: TS-negative FSthy21 cells transfected with G52S mutant human TS cDNA; type: cell-based, mouse
[20] = test system: TS-negative FSthy21 cells transfected with F225L mutant human TS cDNA; type: cell-based, mouse; conditions: AG337; F225L/clone (3) vs wild-type clone (1)

Sequence of TS-negative FSthy21 cells transfected with I108A mutant human TS cDNA (Homo sapiens, UniProt P04818, P2L/I108A, cells depend on it) (P04818 whole entry P2L/I108A): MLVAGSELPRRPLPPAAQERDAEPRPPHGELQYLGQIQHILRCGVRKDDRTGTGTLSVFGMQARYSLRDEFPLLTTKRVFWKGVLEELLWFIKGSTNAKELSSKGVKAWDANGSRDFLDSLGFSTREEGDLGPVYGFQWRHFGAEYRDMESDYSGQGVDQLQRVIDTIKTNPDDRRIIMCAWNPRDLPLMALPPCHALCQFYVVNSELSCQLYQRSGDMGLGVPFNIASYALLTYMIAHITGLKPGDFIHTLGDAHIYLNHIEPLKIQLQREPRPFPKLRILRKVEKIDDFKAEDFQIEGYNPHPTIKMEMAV

Cc1nc2ccc3ccc(CNc4ccc5c(c4)CN([C@@H](CCC(=O)O)C(=O)O)C5=O)cc3c2c(=O)[nH]1
resistance, IC50 values greater than wild-type transfectants ([1]; F225W transfectants vs wild-type transfectants): 22 fold
resistance, IC50 values greater than wild-type transfectants ([2]; I108A transfectants vs wild-type transfectants): 6 fold

CCOS(C)(=O)=O [EMS, Ethylmethanesulfonate]
inhibition at 400 µg/mL (HT1080 cells [3]): 80%

C#CCN(Cc1ccc2nc(N)[nH]c(=O)c2c1)c1ccc(C(=O)N[C@@H](CCC(=O)O)C(=O)O)cc1 [CB3717, N^10-propargyl-5,8-dideazafolic acid]
aqueous solubility [4]: poor
toxicity in Phase I trials [5]: severe renal and hepatic toxicity

Cc1ccc2nc(N)[nH]c(=O)c2c1Sc1ccncc1 [AG337]
Ratio of IC50 values for mutant/wt cells ([1]; AG337, F225W/clone (2) vs wild-type clone (1)): 1.0(1)
Ratio of IC50 values for mutant/wt cells [6]: 7.0(2)
Ratio of IC50 values for mutant/wt cells ([2]; 1108A/clone (1) vs wild-type clone (2)): 80(2)^2
Ratio of IC50 values for mutant/wt cells ([2]; 1108A/clone (2) vs wild-type clone (2)): 76(2)
Ratio of IC50 values for mutant/wt cells ([2]; 1108A/clone (3) vs wild-type clone (2)): 200(2)
biggest difference in IC50 values between clones ([2]; clones 175-2 and 175-3): less than 3 fold
GI50 ([7]; 1108A/clone (1) [175-1]): 30.5 ± 3.7 µM
GI50 ([7]; 1108A/clone (2) [175-2]): 29 ± 2.5 µM
GI50 ([7]; 1108A/clone (3) [175-3]): 76.6 ± 2.8 µM
Ratio of IC50 values for mutant/wt cells [8]: 5.2(1)
Ratio of IC50 values for mutant/wt cells [9]: 1.5(1)
HPPCFU-C colonies ([10]; AG337 1 × 10^−7 M): 0
CFU-GM colonies ([10]; AG337 1 × 10^−8 M): 10
CFU-GM colonies, % in parentheses ([10]; AG337 1 × 10^−8 M): 12%
CFU-GM colonies ([10]; AG337 2 × 10^−7 M): 0
HPPCFU-C colonies ([11]; AG337 1 × 10^−7 M): 0
CFU-GM colonies ([11]; AG337 1 × 10^−8 M): 20
CFU-GM colonies, % in parentheses ([11]; AG337 1 × 10^−8 M): 19%
CFU-GM colonies ([11]; AG337 2 × 10^−7 M): 0
TS activity in whole cells [12]: not totally inhibited
Ratio of IC50 values for mutant/wt cells ([13]; AG337, D49G/clone (1) vs wild-type clone (1)): 40(1)
resistance, IC50 values greater than wild-type transfectants ([13]; D49G transfectants vs wild-type transfectants): 40 fold
Ratio of IC50 values for mutant/wt cells [14]: 5.0(1)
Ratio of IC50 values for mutant/wt cells [15]: 4.5(1)
Ratio of IC50 values for mutant/wt cells [16]: 5.5(1)
HPPCFU-C colonies ([17]; AG337 1 × 10^−7 M): 8
HPPCFU-C colonies, % in parentheses ([17]; AG337 1 × 10^−7 M): 6%
CFU-GM colonies ([17]; AG337 1 × 10^−8 M): 60
CFU-GM colonies, % in parentheses ([17]; AG337 1 × 10^−8 M): 42%
CFU-GM colonies ([17]; AG337 2 × 10^−7 M): 12
CFU-GM colonies, % in parentheses ([17]; AG337 2 × 10^−7 M): 8%
IC50 (HT1080 cells [18]): 2.1 µM
Ratio of IC50 values for mutant/wt cells ([19]; AG337, G52S/clone (3) vs wild-type clone (1)): 12(1)
resistance, IC50 values greater than wild-type transfectants ([19]; G52S transfectants vs wild-type transfectants): 12 fold
Ratio of IC50 values for mutant/wt cells [20]: 1.0(1)
